# Measured values as given in patent publication US20250313535A1, “ALPHA 4 BETA 7 INTEGRIN MODULATORS AND USES THEREOF” (DICE MOLECULES SV, INC., priority 2022, published 2025).
# Where two headings read alike, the source gives them in different places.
# What was measured:
# [1] = target: α4β7 integrin (Homo sapiens (Human), UniProt P13612+P26010); assay: Integrin Adhesion Assay: Protocol 4 (MAdCAM-coated plate, RPMI-8866 cells with stable LOF mutation of the ITGB1 gene); type: cell-based
# Procedure, shortened: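 RPMI-8866 cells with CRISPR/Cas9 knockout of ITGB1 (2×10^6/mL) were added to MAdCAM-coated wells with compound (1% DMSO) in HEPES/NaCl buffer with 1 mM MnCl2, 0.1 mM CaCl2 and 1% BSA, then incubated 1 h at 37 °C. After four washes, adherent cells were quantified by CellTiter-Glo luminescence. Percent inhibition versus DMSO and control compound was fitted to 4-parameter curves.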
# [2] = target: α4β1 integrin (Homo sapiens (Human), UniProt P05556+P13612); assay: Integrin Adhesion Assay: Protocol 5 (VCAM-coated plate, RPMI-8866 cells with stable LOF mutation of the ITGB7 gene); type: cell-based
# Sequence of α4β1 integrin (P13612 34-1032): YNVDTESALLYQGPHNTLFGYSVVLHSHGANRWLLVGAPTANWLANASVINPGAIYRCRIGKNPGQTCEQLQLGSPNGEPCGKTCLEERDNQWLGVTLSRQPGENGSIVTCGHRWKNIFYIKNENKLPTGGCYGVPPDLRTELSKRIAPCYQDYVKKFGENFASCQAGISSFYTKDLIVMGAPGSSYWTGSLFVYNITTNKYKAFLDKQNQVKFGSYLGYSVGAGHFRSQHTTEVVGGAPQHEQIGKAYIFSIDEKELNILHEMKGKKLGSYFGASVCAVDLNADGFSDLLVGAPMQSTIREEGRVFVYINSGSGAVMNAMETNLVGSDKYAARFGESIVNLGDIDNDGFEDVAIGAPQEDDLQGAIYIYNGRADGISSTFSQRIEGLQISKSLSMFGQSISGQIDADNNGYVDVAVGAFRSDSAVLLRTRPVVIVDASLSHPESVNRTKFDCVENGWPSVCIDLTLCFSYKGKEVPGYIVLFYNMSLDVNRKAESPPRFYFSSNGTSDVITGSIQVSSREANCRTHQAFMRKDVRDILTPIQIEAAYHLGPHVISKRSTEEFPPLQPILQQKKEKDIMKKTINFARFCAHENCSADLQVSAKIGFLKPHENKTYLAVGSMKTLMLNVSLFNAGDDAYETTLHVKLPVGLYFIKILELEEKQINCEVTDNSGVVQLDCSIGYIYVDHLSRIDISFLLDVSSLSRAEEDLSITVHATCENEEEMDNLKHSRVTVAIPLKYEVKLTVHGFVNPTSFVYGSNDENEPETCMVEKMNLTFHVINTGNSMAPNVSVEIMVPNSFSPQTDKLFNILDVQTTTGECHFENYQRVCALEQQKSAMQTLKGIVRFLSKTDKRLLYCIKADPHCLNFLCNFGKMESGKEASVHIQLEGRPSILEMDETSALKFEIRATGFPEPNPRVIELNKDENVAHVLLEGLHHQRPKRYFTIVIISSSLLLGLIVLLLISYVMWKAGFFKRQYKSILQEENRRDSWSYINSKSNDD
# Sequence of α4β1 integrin (P05556 21-798): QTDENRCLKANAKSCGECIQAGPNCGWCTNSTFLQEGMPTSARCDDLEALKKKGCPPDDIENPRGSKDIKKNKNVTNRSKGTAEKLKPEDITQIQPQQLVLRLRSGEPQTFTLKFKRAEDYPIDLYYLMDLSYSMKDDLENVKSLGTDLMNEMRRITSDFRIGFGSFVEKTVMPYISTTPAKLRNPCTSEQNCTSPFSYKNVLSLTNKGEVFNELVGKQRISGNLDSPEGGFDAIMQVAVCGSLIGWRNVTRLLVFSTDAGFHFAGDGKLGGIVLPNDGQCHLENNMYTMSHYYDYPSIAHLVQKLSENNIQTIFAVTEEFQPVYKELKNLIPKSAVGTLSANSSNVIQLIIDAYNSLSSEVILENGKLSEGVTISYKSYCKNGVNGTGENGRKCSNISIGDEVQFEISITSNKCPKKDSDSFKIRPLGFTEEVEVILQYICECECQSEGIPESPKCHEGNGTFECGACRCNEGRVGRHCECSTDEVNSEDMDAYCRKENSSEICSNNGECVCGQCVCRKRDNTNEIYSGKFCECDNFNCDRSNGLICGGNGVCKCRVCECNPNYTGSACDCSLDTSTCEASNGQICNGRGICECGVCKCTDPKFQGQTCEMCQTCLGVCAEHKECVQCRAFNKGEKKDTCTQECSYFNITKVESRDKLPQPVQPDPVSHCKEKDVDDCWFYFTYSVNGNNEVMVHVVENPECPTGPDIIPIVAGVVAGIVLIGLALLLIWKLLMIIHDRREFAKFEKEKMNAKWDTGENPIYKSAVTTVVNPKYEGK
# Procedure, shortened: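 RPMI-8866 B cells with CRISPR/Cas9 ITGB7 knockout (clonal, verified by flow cytometry) adhered to VCAM-coated wells for 1 h at 37° C in HEPES/NaCl buffer with 1 mM MnCl2, 0.1 mM CaCl2, 1% BSA, 1% DMSO. Bound cells quantified by CellTiter-Glo luminescence after washing; % inhibition versus DMSO and control, 4-parameter fit.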
# [3] = RPMI-8866 cells with stable LOF mutation of the ITGB1 gene, read-out: Mean IC50 α4β7 KO^a
# [4] = RPMI-8866 cells with stable LOF mutation of the ITGB7 gene, read-out: Mean IC50 α4β1 KO^b
# [5] = Protocol 4, RPMI-8866 cells with LOF mutation of ITGB1, MAdCAM, read-out: Mean IC50 α4β7 KO
# [6] = Protocol 5, RPMI-8866 cells with LOF mutation of ITGB7, VCAM, read-out: Mean IC50 α4β1 KO
# Sequence of α4β7 integrin (P13612 34-1032): as the sequence (P13612 34-1032) above
# Sequence of α4β7 integrin (P26010 20-798): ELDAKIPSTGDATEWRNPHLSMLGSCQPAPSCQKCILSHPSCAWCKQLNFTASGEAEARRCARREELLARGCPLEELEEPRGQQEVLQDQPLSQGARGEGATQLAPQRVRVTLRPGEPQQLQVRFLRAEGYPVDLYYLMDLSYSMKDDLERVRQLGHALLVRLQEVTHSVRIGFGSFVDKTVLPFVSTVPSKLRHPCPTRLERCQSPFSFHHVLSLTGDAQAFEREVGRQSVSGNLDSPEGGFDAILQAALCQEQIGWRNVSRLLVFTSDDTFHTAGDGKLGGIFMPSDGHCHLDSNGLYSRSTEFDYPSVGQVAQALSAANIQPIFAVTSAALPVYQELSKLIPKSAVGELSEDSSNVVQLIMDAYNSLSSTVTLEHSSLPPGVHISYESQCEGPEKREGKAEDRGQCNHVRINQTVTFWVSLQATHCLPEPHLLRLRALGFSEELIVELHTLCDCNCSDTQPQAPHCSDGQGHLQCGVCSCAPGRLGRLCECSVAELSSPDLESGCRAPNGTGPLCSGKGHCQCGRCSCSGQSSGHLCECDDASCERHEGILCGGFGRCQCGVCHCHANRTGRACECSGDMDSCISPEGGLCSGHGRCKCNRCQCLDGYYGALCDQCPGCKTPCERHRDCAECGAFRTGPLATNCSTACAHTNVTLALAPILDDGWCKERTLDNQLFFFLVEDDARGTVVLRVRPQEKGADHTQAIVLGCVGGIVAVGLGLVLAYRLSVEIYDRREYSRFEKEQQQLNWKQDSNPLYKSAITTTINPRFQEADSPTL
SMILES,"IC50 [1, 3] [nM]","IC50 [2, 4] [nM]","IC50 [1, 5] [nM]","IC50 [2, 6] [nM]"
COc1ccc(CN2CCCC2)c(OC)c1-c1cccc2c(C[C@H](NC(=O)c3c(C)cccc3F)C(=O)O)cccc12 [Compound 596],< 10,100 to 1000,–,–
COc1ccc2c(c1-c1cccc3c(C[C@H](NC(=O)C4(C(F)(F)F)CCN(CC(F)(F)F)CC4)C(=O)O)cccc13)CCN(CC(F)F)C2 [Compound 752],–,–,10 to 100,> 1000
CC[C@H]1CCCN1Cc1cnc(-c2cccc3c(C[C@H](NC(=O)C4(C(F)(F)F)CCN(CC(F)F)CC4)C(=O)O)cccc23)c2ccccc12 [Compound 934],–,–,< 10,100 to 1000
CN(C)Cc1cccc2c(-c3cccc4c(C[C@H](NC(=O)C5(C(F)(F)F)CCN(C6COC6)CC5)C(=O)O)cccc34)nccc12 [Compound 591],< 10,> 1000,–,–
COc1cccc(OC)c1-c1cccc2c(C[C@H](NC(=O)c3c(C)cccc3F)C(=O)O)cccc12 [Compound 526],10 to 100,> 1000,–,–
COc1ccc(CN2CCC(C)(C)CC2)cc1-c1cccc2c(C[C@H](NC(=O)C3(C(F)(F)F)CCN(CC(F)F)CC3)C(=O)O)cccc12 [Compound 942],–,–,< 10,100 to 1000
O=C(O)[C@H](Cc1cccc2c(-c3ncc(CN4CCC(F)(F)CC4)cc3C3CC3)cccc12)NC(=O)C1(C(F)(F)F)CCN(CC(F)F)CC1 [Compound 951],–,–,< 10,100 to 1000
COc1ccc(CN(C)C)nc1-c1cccc2c(C[C@H](NC(=O)c3c(C)cccc3F)C(=O)O)cccc12 [Compound 599],< 10,100 to 1000,–,–
CC1(C(=O)N[C@@H](Cc2cccc3c(-c4ncc(CN5CCCCC5)c5ccccc45)cccc23)C(=O)O)CC2CCC(C1)N2CC(F)(F)F (stereo partly shown) [Compound 679],10 to 100,> 1000,–,–
"Cn1c(=O)c(-c2cccc3c(C[C@H](NC(=O)C4(C(F)(F)F)CCN([C@H]5CCC(F)(F)C5)CC4)C(=O)O)cccc23)c(C(F)(F)F)c2ccccc21 (single isomer, unassigned) [Compound 495]",10 to 100,> 1000,–,–
CN(C)Cc1cccc2c(-c3cccc4c(C[C@H](NC(=O)C5(C(F)(F)F)CCN([C@@H]6CCOC6)CC5)C(=O)O)cccc34)nccc12 [Compound 592],< 10,> 1000,–,–
COc1c(-c2cccc3c(C[C@H](NC(=O)C4(C(F)(F)F)CCN(CC(F)F)CC4)C(=O)O)cccc23)cc(CN2CCCCC2)cc1C(F)(F)F [Compound 764],–,–,10 to 100,> 1000
COc1cccc(CN2CCC(C)(C)CC2)c1-c1cccc2c(C[C@H](NC(=O)c3c(C)cccc3F)C(=O)O)cccc12 [Compound 1017],–,–,< 10,100 to 1000
COc1ccc(CN2CCC(F)(F)C2)c(OC)c1-c1cccc2c(C[C@H](NC(=O)c3c(C)cccc3F)C(=O)O)cccc12 [Compound 597],10 to 100,> 1000,–,–
Cc1cccc(F)c1C(=O)N[C@@H](Cc1cccc2c(-c3ncccc3CN3CCCCC3)cccc12)C(=O)O [Compound 1021],–,–,10 to 100,> 1000
O=C(O)[C@H](Cc1cccc2c(-c3ncc(CN4CCCCC4)c4ccccc34)cccc12)NC(=O)C1(C(F)(F)F)CCN(C2COC2)CC1 [Compound 577],< 10,100 to 1000,–,–
COc1cccc(CCN2CCC[C@H](F)C2)c1-c1cccc2c(C[C@H](NC(=O)c3c(C)cccc3F)C(=O)O)cccc12 [Compound 1037],–,–,< 10,> 1000
COc1ccc(CN2CCCCC2)c(OC)c1-c1cccc2c(C[C@H](NC(=O)c3c(C)cccc3F)C(=O)O)cccc12 [Compound 621],< 10,100 to 1000,–,–
COc1ccc(CN2CCCC3(CCN(Cc4ccccc4)CC3)C2)c(OC)c1-c1cccc2c(C[C@H](NC(=O)C3(C(F)(F)F)CCN(CC(F)(F)F)CC3)C(=O)O)cccc12 [Compound 809],–,–,< 10,100 to 1000
Cc1cccc(F)c1C(=O)N[C@@H](Cc1cccc2c(-c3cccc4c3OCC4)cccc12)C(=O)O [Compound 1002],–,–,100 to 1000,> 1000
COc1ccc(CCN2CCC3(CCCCC3)CC2)c(OC)c1-c1cccc2c(C[C@H](NC(=O)C3(C(F)(F)F)CCN(CC(F)(F)F)CC3)C(=O)O)cccc12 [Compound 957],–,–,< 10,100 to 1000
Cn1c(=O)c(-c2cccc3c(C[C@H](NC(=O)C4(C(F)(F)F)CCN(C5CCS(=O)(=O)CC5)CC4)C(=O)O)cccc23)c(C(F)(F)F)c2ccccc21 [Compound 505],10 to 100,> 1000,–,–
COc1cccc(CCN2CCC(F)(F)CC2)c1-c1cccc2c(C[C@H](NC(=O)C3(C(F)(F)F)CCN(CC(F)(F)F)CC3)C(=O)O)cccc12 [Compound 974],–,–,10 to 100,> 1000
